molecular target: T1, human B1R receptor (CHO K1 cells stably transfected with the human B1R gene) (Homo sapiens, UniProt P46663); experiment: Functional study on the bradykinin receptor 1 (B1R), Ca2+ fluorescence (Fluo-4) FLIPR/Novostar assay, hB1R cells; type: cell-based; conditions: CHO-K1, read-out: % Inhibition (h-B1R) at 10 μM
T1 construct: expressed in transfected cells; host or cells: CHO K1 cells (Chinese hamster ovary), stably transfected
T1 sequence (P46663 1-353): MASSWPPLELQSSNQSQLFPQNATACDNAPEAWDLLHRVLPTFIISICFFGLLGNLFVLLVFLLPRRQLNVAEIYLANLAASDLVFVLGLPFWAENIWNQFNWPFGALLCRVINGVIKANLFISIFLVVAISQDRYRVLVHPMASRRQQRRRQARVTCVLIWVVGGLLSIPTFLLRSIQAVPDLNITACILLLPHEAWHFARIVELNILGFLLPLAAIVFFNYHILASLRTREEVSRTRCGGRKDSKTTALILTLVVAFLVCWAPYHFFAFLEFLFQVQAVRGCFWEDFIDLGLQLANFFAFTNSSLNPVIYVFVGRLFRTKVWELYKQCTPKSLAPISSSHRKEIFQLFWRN
Description: The agonistic or antagonistic action of substances can be quantified on the bradykinin receptor 1 (B1R) of the species human and rat using ectopically expressing cell lines (CHO K1 cells) and with the aid of a Ca^2+-sensitive dye (Fluo-4) using a fluorescent imaging plate reader (FLIPR). The indication in % activation is based on the Ca^2+ signal after addition of Lys-Des-Arg^9-bradykinin (0.5 nM) or Des-Arg^9-bradykinin (100 nM). Antagonists lead to suppression of the Ca^2+ influx after the addition of the agonist. % Inhibition compared with the maximum achievable inhibition is indicated.
The agonistic or antagonistic action of substances can be determined on the bradykinin receptor 1 (B1R) of the species human and rat using the following assay. According to this assay, the increase in intracellular Ca^2+ following administration of a B1R agonist is quantified with the aid of a Ca^2+-sensitive dye (Fluo-4 type, Molecular Probes Europe BV, Leiden, Netherlands) using a Fluorescent Imaging Plate Reader (FLIPR, Molecular Devices, Sunnyvale, USA) and/or using a Novostar (BMG Labtech GmbH, Offenburg, Germany).
Chinese hamster ovary cells (CHO K1 cells) which have been stably transfected with the human B1R gene (hB1R cells) or with the B1R gene of the rat (rB1R cells) are used. For functional studies, the cells are plated out on black 96-well plates having a clear base (BD Biosciences, Heidelberg, Germany or Greiner, Frickenhausen, Germany) in a density of 20,000-35,000 cells/well. The cells are left overnight at 37° C. and with 5% CO2 in culture medium (hB1R cells: Nutrient Mixture Ham's F12, Gibco Invitrogen GmbH, Karlsruhe, Germany or DMEM, Sigma-Aldrich, Taufkirchen, Germany; rB1R cells: D-MEM/F12, Gibco Invitrogen GmbH, Karlsruhe, Germany), with 10 vol. % FBS (fetal bovine serum, Gibco Invitrogen GmbH, Karlsruhe, Germany or PAN Biotech GmbH, Aidenbach, Germany). On the following day, the cells are loaded for 60 minutes at 37° C. with 2.13 μM Fluo-4 (Molecular Probes Europe BV, Leiden, Netherlands) in HBSS buffer (Hank's buffered saline solution, Gibco Invitrogen GmbH, Karlsruhe, Germany) […] (Sigma-Aldrich, Taufkirchen, Germany) and 10 mM HEPES (Sigma-Aldrich, Taufkirchen, Germany). The plates are then washed twice with HBSS buffer, and HBSS buffer additionally containing 0.1% BSA (bovine serum albumin; Sigma-Aldrich, Taufkirchen, Germany), 5.6 mM glucose and 0.05% gelatin (Merck KGaA, Darmstadt, Germany) is added to the plates. After incubation for a further 20 minutes at room temperature, the plates are inserted into the FLIPR or Novostar for Ca^2+ measurement. Alternatively, washing is carried out with buffer A (15 mM HEPES, 80 mM NaCl, 5 mM KCl, 1.2 mM CaCl2, 0.7 mM MgSO4, 2 g/l glucose, 2.5 mM probenecid) followed by loading with buffer A with added 2.5 μM Fluo-4 and 0.025% Pluronic F127 (Sigma-Aldrich, Taufkirchen, Germany). The cells are then washed twice with buffer A and incubated for 30 minutes at room temperature with buffer A additionally containing 0.05% BSA and 0.05% gelatin and are then inserted into the FLIPR or Novostar for Ca^2+ measurement. The Ca^2+-dependent fluorescence is measured before and after the addition of substances (λex=488 nm, λem=540 nm). Quantification is carried out by measuring the highest fluorescence intensity (FC, fluorescence counts) over time.
The FLIPR protocol consists of 2 substance additions, which are pipetted in the FLIPR. In the case of measurements using the Novostar, only the second substance addition is pipetted in the device. Both devices measure the fluorescence intensity over time. Test substances (10 μM) are first pipetted onto the cells and the intracellular Ca^2+ increase is compared with the control (hB1R: Lys-Des-Arg^9-bradykinin>=50 nM; rB1R: Des-Arg^9-bradykinin>=1 μM). This gives the % activation, based on the Ca^2+ signal after addition of Lys-Des-Arg^9-bradykinin (>=50 nM) or Des-Arg^9-bradykinin (>=1 μM). […]

| Compound | inhibition at 10 µM [%] |
| --- | --- |
| Cc1cccc(C)c1C(=O)NC1CCOc2ccc(C(=O)N(C)C3CCN(c4ccncc4)CC3)cc21 (stereo not shown) [CC_H-71, 4-[(2,6-Dimethyl-benzoyl)amino]-N-methyl-N-(1-pyridin-4-yl-piperidin-4-yl)-3,4-dihydro-2H-chromene-6-carboxylic acid amide] | 84 |
| CN(C(=O)c1ccc2c(c1)C(NC(=O)c1c(Cl)cccc1C(F)(F)F)CCO2)C1CCN(c2ccncc2)CC1 (stereo not shown) [CC_H-72, 4-[[2-Chloro-6-(trifluoromethyl)-benzoyl]amino]-N-methyl-N-(1-pyridin-4-yl-piperidin-4-yl)-3,4-dihydro-2H-chromene-6-carboxylic acid amide] | 93 |
| CN(C(=O)c1ccc2c(c1)C(NC(=O)c1ccccc1Cl)CCC2)C1CCN(c2ccncc2)CC1 (stereo not shown) [CC_H-73, 8-[(2-Chloro-benzoyl)amino]-N-methyl-N-(1-pyridin-4-yl-piperidin-4-yl)-5,6,7,8-tetrahydro-naphthalene-2-carboxylic acid amide] | 100 |
| O=C(NCCC1CCN(c2ccncc2)CC1)c1ccc2c(c1)C(NC(=O)c1cccc(Cl)c1Cl)CC2 (stereo not shown) [CC_H-74, 3-[(2,3-Dichloro-benzoyl)amino]-N-[2-(1-pyridin-4-yl-piperidin-4-yl)-ethyl]-2,3-dihydro-1H-indene-5-carboxylic acid amide] | 96 |
| CN(C(=O)c1ccc2c(c1)C(NC(=O)c1ccccc1Cl)CC2)C1CCN(c2ccc3cnccc3c2)CC1 (stereo not shown) [CC_H-75, 3-[(2-Chloro-benzoyl)amino]-N-(1-isoquinolin-6-yl-piperidin-4-yl)-N-methyl-2,3-dihydro-1H-indene-5-carboxylic acid amide] | 99 |
| CN(C(=O)c1ccc2c(c1)C(NC(=O)c1cc(F)ccc1Cl)CC2)C1CCN(c2ccc3cnccc3c2)CC1 (stereo not shown) [CC_H-76, 3-[(2-Chloro-5-fluoro-benzoyl)amino]-N-(1-isoquinolin-6-yl-piperidin-4-yl)-N-methyl-2,3-dihydro-1H-indene-5-carboxylic acid amide] | 100 |
| CN(C(=O)c1ccc2c(c1)C(NC(=O)C1CCCCC1)CC2)C1CCN(c2ccc3cnccc3c2)CC1 (stereo not shown) [CC_H-77, 3-(Cyclohexanecarbonylamino)-N-(1-isoquinolin-6-yl-piperidin-4-yl)-N-methyl-2,3-dihydro-1H-indene-5-carboxylic acid amide] | 99 |
| CN(C(=O)c1ccc2c(c1)C(NC(=O)CCC1CCCC1)CC2)C1CCN(c2ccc3cnccc3c2)CC1 (stereo not shown) [CC_H-78, 3-(3-Cyclopentyl-propanoylamino)-N-(1-isoquinolin-6-yl-piperidin-4-yl)-N-methyl-2,3-dihydro-1H-indene-5-carboxylic acid amide] | 100 |
| CC(C)CC(=O)NC1CCc2ccc(C(=O)N(C)C3CCN(c4ccc5cnccc5c4)CC3)cc21 (stereo not shown) [CC_H-79, N-(1-Isoquinolin-6-yl-piperidin-4-yl)-N-methyl-3-(3-methyl-butanoylamino)-2,3-dihydro-1H-indene-5-carboxylic acid amide] | 99 |
| CN(C(=O)c1ccc2c(c1)C(NC(=O)c1sccc1Cl)CC2)C1CCN(c2ccc3cnccc3c2)CC1 (stereo not shown) [CC_H-80, 3-Chloro-N-[6-[(1-isoquinolin-6-yl-piperidin-4-yl)-methyl-carbamoyl]-2,3-dihydro-1H-inden-1-yl]-thiophene-2-carboxylic acid amide] | 98 |
| Cc1cc(N2CCC(N(C)C(=O)c3ccc4c(c3)C(N(C)C(=O)C3CCCCC3)CC4)CC2)cc(C)n1 (stereo not shown) [CC_H-81, 3-(Cyclohexanecarbonyl-methyl-amino)-N-[1-(2,6-dimethyl-pyridin-4-yl)-piperidin-4-yl]-N-methyl-2,3-dihydro-1H-indene-5-carboxylic acid amide] | 100 |
| Cc1cc(N2CCC(N(C)C(=O)c3ccc4c(c3)C(N(C)C(=O)c3cc(F)ccc3Cl)CC4)CC2)cc(C)n1 (stereo not shown) [CC_H-82, 3-[(2-Chloro-5-fluoro-benzoyl)-methyl-amino]-N-[1-(2,6-dimethyl-pyridin-4-yl)-piperidin-4-yl]-N-methyl-2,3-dihydro-1H-indene-5-carboxylic acid amide] | 100 |
| Cc1cc(N2CCC(N(C)C(=O)c3ccc4c(c3)C(N(C)C(=O)c3cccc(Cl)c3Cl)CC4)CC2)cc(C)n1 (stereo not shown) [CC_H-83, 3-[(2,3-Dichloro-benzoyl)-methyl-amino]-N-[1-(2,6-dimethyl-pyridin-4-yl)-piperidin-4-yl]-N-methyl-2,3-dihydro-1H-indene-5-carboxylic acid amide] | 100 |
| Cc1cc(N2CCC(N(C)C(=O)c3ccc4c(c3)C(N(C)C(=O)CCC3CCCC3)CC4)CC2)cc(C)n1 (stereo not shown) [CC_H-84, 3-(3-Cyclopentyl-propanoyl-methyl-amino)-N-[1-(2,6-dimethyl-pyridin-4-yl)-piperidin-4-yl]-N-methyl-2,3-dihydro-1H-indene-5-carboxylic acid amide] | 100 |
| Cc1cccc(C)c1C(=O)NC1CC(C)(C)c2ccc(C(=O)N(C)C3CCN(c4ccncc4)CC3)cc21 (stereo not shown) [CC_H-85, 3-[(2,6-Dimethyl-benzoyl)amino]-N,1,1-trimethyl-N-(1-pyridin-4-yl-piperidin-4-yl)-2,3-dihydro-indene-5-carboxylic acid amide] | 99 |
| Cc1cc(N2CCC(N(C)C(=O)c3ccc4c(c3)C(N(C)C(=O)c3cnccc3C(F)(F)F)CC4)CC2)cc(C)n1 (stereo not shown) [CC_H-86, N-[6-[[1-(2,6-Dimethyl-pyridin-4-yl)-piperidin-4-yl]-methyl-carbamoyl]-2,3-dihydro-1H-inden-1-yl]-N-methyl-4-(trifluoromethyl)-pyridine-3-carboxylic acid amide] | 95 |
| Cc1cc(N2CCC(N(C)C(=O)c3ccc4c(c3)C(N(C)C(=O)c3ccccc3Cl)CC4)CC2)cc(C)n1 (stereo not shown) [CC_H-87, 3-[(2-Chloro-benzoyl)-methyl-amino]-N-[1-(2,6-dimethyl-pyridin-4-yl)-piperidin-4-yl]-N-methyl-2,3-dihydro-1H-indene-5-carboxylic acid amide] | 100 |
| Cc1cc(N2CCC(N(C)C(=O)c3ccc4c(c3)C(N(C)C(=O)c3sccc3Cl)CC4)CC2)cc(C)n1 (stereo not shown) [CC_H-88, 3-Chloro-N-[6-[[1-(2,6-dimethyl-pyridin-4-yl)-piperidin-4-yl]-methyl-carbamoyl]-2,3-dihydro-1H-inden-1-yl]-N-methyl-thiophene-2-carboxylic acid amide] | 100 |
| CN(C(=O)c1ccc2c(c1)C(NS(=O)(=O)Cc1ccccc1C(F)(F)F)CC2(C)C)C1CCN(c2ccncc2)CC1 (stereo not shown) [CC_H-89, N,1,1-Trimethyl-N-(1-pyridin-4-yl-piperidin-4-yl)-3-[[[2-(trifluoromethyl)-phenyl]-methylsulfonyl]amino]-2,3-dihydro-indene-5-carboxylic acid amide] | 100 |
